SMILES | logP
CCCCCCCC#N | 2.75
N#CCCCCl | 0.56
CCCCCC#N | 1.66
CCCC#N | 0.53
CCC(C)C#N (stereo unspecified) | 1.05
C=C(C)C#N | 0.68
CC(C)C#N | 0.46
C=CCC#N | 0.4
CCCCCCCCC#N | 3.12
N#CCCCl | 0.18
CC(C)CCC#N | 1.54
